Assay [1] can be described thus: blockers of bursicon-stimulated LGR2 cAMP reporter – cell-based, HEK293, CRE-luciferase reporter, cherry pick, set 2, dose response (AID 743343).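 Further: transfected cells were stimulated with diluted bursicon conditioned medium after compound addition.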 In kind it is functional. (In general: In a reporter assay the amount or activity of a reporter protein is the signal.)
A short description of assay [2]: A549 cell cytotoxicity, dose response, cytotoxicity control, plate reader, cherry-pick, antagonist series (AID 743412). Format: functional, cell-based.
A short description of assay [3]: viability loss in HEK293 cells – cell-based, plate reader, cherry-picked samples, cytotoxicity control, dose response (AID 743446). In kind it is functional.
Assay [4] can be described thus: blockade of melanocortin 4 receptor signaling – cell-based, plate reader, cherry pick, counter-screen for LGR2 antagonist project, dose response (AID 743444).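 Further: transfected HEK 293 cells stimulated with alpha-MSH peptide; potency of inhibitors of the alpha-MSH evoked signal.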 In kind it is functional. (A counterscreen serves to expose hits that act by an unwanted route or on another target.)
A short description of assay [5]: toxicity toward HepG2 liver cells – cell-based, plate reader, cherry-pick, antagonist series, cytotoxicity control, dose response (AID 743416). Format: functional.
Assay [6] concerns the target NAD-dependent protein deacylase sirtuin-5, mitochondrial (Homo sapiens, UniProt Q9NXA8). Put plainly: sirtuin-5 deacylation blockers, concentration series – biochemical, fluorescence imaging, cherry-pick, set 5, dose response (AID 720591).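 Further: desuccinylation of succinyl peptide AMC substrate read as fluorescence after trypsin release; potency of inhibitors that lower fluorescence and may act on trypsin instead.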
The target of assay [7] is Potassium channel subfamily K member 9 (Homo sapiens, UniProt Q9NPC2). Put plainly: KCNK9 flux blockade, concentration-response – cell-based, FluxOR thallium flux, selectivity assay for TASK1 inhibitor project, SAR follow-up (AID 652211).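 Further: potency is for inhibitors of the channel.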 In kind it is functional.
In assay [8] the target is Potassium channel subfamily K member 3 (Homo sapiens, UniProt O14649). In words: inhibition of human KCNK3 channel flux – CHO cells, FluxOR thallium flux, SAR follow-up (AID 652212). In kind it is functional.
A further assay addresses Kallikrein-7 (Homo sapiens, UniProt P49862). Put plainly: Fluorescence Intensity-based biochemical primary high throughput dose response assay to identify activators of kallikrein-7 (K7) zymogen.
Assay [9] can be described thus: PAX8-dependent cell viability loss – plate reader, dry powder, dose response (AID 743049). Format: functional, cell-based.
A short description of assay [10]: OVCAR4 cell viability loss – plate reader, dry powder, SA11, cytotoxicity control for PAX8 inhibitor project, dose response (AID 743150). In kind it is functional, cell-based. The following applies: OVCAR-4.
Assay [11] can be described thus: OVCAR8 cell viability loss – plate reader, dry powder samples, PAX8 project, dose response (AID 743197). In kind it is functional, cell-based. As to conditions: OVCAR-8.
The target of a further assay is Paired box protein Pax-8 (Homo sapiens, UniProt Q06710). Put plainly: PAX8 transcriptional activity inhibition in RMG-I – RMG-I cells, luciferase, cherry-pick, dose response (AID 687027).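 Further: luciferase reporter driven by Pax8 target thyroperoxidase promoter measured by SteadyGlo luminescence.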 Format: functional, cell-based.
Assay [12] can be described thus: OVCAR-3 cell viability loss – plate reader, dry powder samples, PAX8 inhibitor project, dose response (AID 743044). In kind it is functional, cell-based.
Assay [13] is described as follows: COV434 cell viability loss – plate reader, dry powder, SA7, cytotoxicity control for PAX8 inhibitor project, dose response (AID 743145). Format: functional, cell-based.
A short description of assay [14]: OV-90 cell viability loss – plate reader, dry powder, SA8, PAX8 inhibitor project, dose response (AID 743149). Format: functional, cell-based.
A short description of assay [15]: IGROV1 cell killing – plate reader, dry powder samples, PAX8 inhibitor project, dose response (AID 743043). The following applies: IGROV-1. In kind it is functional, cell-based.
Assay [16] is described as follows: inhibitors acting on PAX2 in cells – cell-based, plate reader, dry powder samples, selectivity assay for PAX8 inhibitor project, dose response (AID 743048).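 Further: HEK293 cells carrying a WT1 promoter luciferase reporter driven by expressed Pax2; potency is for inhibition of Pax2 driven reporter signal.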 Format: functional.
Assay [17] is described as follows: PAX5 cellular inhibition readout – cell-based, plate reader, dry powder samples, selectivity assay for PAX8 inhibitor project, dose response (AID 743047).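 Further: HEK293 cells carrying a Pax5 driven CD19 promoter luciferase reporter; potency of inhibitors that lower reporter luminescence.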 In kind it is functional.
A short description of assay [18]: COV362 cell viability loss – plate reader, dry powder, SA12, cytotoxicity control for PAX8 inhibitor project, dose response (AID 743144). In kind it is functional, cell-based.
The nature of assay [19]: cells.
The target in the next assay is Major prion protein (Homo sapiens, UniProt P04156). Format: functional, cell-based.
Assay [20] has as its target G-protein coupled receptor 183 (Homo sapiens, UniProt P32249). Put plainly: SAR confirmation of small molecule antagonists of the EBI2 receptor via a luminescent beta-arrestin assa. In kind it is functional.
Assay [21] in a line: HEK293 Cytotoxicity Assay Measured in Cell-Based System Using Plate Reader - 7071-01_Inhibitor_Dose_CherryPick_Activity_Set2. In kind it is functional.
A further assay concerns HEK293. Put plainly: viability loss in HEK293T cells – cell-based, ATP luminescence, cherry-pick samples, cytotoxicity control, dose response (AID 687005).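 Further: cells exposed to compound for 48 hours.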 Format: functional. As to conditions: Homo sapiens.
The subject of a further assay is Streptococcus. In words: GAS UMAA2166 growth inhibition – luminescence, BacTiterGlo, counter-screen for streptokinase expression inhibitor project, dose response (AID 1915).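 Further: potency for reduction of bacterial viability or growth.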 In kind it is functional, organism-based.
The next assay deals with T1, Streptokinase A (Streptococcus pyogenes serotype M1, UniProt P10520).
T1 sequence (P10520 whole entry): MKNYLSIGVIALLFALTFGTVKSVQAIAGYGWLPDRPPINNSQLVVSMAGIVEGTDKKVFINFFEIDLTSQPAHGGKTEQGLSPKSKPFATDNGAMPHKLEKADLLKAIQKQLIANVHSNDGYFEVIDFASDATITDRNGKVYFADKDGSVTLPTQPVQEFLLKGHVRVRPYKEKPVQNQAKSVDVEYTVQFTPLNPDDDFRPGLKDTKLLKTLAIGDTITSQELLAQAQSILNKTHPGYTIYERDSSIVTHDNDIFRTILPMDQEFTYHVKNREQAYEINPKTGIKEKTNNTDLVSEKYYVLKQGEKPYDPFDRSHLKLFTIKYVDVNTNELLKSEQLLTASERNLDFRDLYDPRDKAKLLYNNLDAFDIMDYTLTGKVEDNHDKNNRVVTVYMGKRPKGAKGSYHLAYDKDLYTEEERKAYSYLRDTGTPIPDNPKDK
Put plainly: viability-normalized secreted streptokinase activity reduction – plasminogen activation absorbance, OD405, dose response (AID 1914).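 Further: secreted streptokinase activity via plasminogen activation per viability signal from cell pellet.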 Format: functional, Streptococcus pyogenes M1 GAS.

The target of another assay is T2, Protein skinhead-1 (Caenorhabditis elegans, UniProt P34707).
T2 sequence (P34707 whole entry): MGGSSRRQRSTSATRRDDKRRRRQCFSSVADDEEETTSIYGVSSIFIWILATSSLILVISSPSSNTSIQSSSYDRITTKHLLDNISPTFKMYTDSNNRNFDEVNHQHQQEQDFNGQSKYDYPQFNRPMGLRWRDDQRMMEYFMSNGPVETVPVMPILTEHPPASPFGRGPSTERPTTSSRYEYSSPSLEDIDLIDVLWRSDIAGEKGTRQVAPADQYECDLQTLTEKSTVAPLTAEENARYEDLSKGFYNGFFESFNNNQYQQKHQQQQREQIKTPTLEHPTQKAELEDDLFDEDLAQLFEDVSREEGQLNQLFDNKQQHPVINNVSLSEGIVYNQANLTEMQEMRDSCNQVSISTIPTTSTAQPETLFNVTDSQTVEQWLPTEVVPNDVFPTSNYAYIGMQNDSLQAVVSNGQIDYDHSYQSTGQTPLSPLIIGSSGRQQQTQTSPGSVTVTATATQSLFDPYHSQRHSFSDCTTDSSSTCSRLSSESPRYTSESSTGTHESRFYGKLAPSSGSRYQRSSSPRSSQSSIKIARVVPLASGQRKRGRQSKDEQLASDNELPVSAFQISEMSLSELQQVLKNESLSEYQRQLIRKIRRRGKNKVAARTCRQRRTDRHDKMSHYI
Format: functional.

For assay [22], the system named is Streptococcus sp. 'group A'. In words: Streptococcus pyogenes SK(-)GAS viability under kanamycin – luminescence, BacTiterGlo, confirmation, counter-screen for streptokinase expression inhibitor project, dose response (AID 1900). In kind it is functional, organism-based.
The nature of assay [23]: cells. This is another data set of the same source.
Assay [24] in a line: viability of uninfected HEp-2 cells – cell-based, HTS, cytotoxicity control for RSV inhibitor project, dose response (AID 2410). Format: functional. The following applies: human respiratory syncytial virus.
Assay [25] is described as follows: general mammalian cell viability loss – activator set, cherry-pick, cytotoxicity control for miR-122 modulator project, dose response (AID 720690).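 Further: HEK293T human cells scored for general mammalian cytotoxicity.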 In kind it is functional, cell-based.
Assay [26] in a line: activation of miR-122 Renilla sensor silencing – cell-based, Huh7 psiCHECK-miR122, Renilla luciferase, cherry-picked, dose response (AID 651956).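 Further: huh7 hepatoma cells stably carrying a psiCHECK-2 miR-122 sensor plasmid; renilla luciferase signal reporting endogenous miR-122 activity after 48 h compound exposure.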 In kind it is functional.
The nature of assay [27]: general mammalian cell viability loss – inhibitor set, cherry-pick, set 2, cytotoxicity control for miR-122 modulator project, dose response (AID 720697). Format: functional, cell-based.
The nature of assay [28]: A2780 cell killing – plate reader, dry powder samples, cytotoxicity control, dose response (AID 743046). Format: functional, cell-based.
Assay [29] can be described thus: viability loss in HepG2 hepatoma cells – cell-based, ATP luminescence, cherry-pick, activator set 2, cytotoxicity control, dose response (AID 1053143). In kind it is functional.

One may read the AC50 as the midpoint of the concentration-response curve, whichever way the signal moves. As a reminder, the IC50 is the concentration that gives 50% inhibition. Broadly, the EC50 is the concentration needed to bring the measured effect to its halfway point. One may read the CC50 as the concentration that lowers cell viability or growth by half.

The structures appear in SMILES notation. Activity calls are given as the source filed them.

Regarding `NC(=O)c1ccsc1NC(=O)c1ccc(N2CCCC2=O)cc1`, the AC50 is 10.5 µM (active) in assay [1]; 50.9 µM (active) in assay [2]; > 52 µM (inactive) in assay [3]; 16.5 µM (active) in assay [4]; > 52 µM (inactive) in assay [5].
`O=C(Cn1cnc(S(=O)(=O)N2CCCC2)c1)Nc1cccc(Br)c1`: the AC50 in assay [6] was > 30 µM (inactive).
Take `CCOc1ccccc1NC(=O)c1cccc(NC(=O)c2ccccc2Cl)c1`: the IC50 in [7] is 2.63 µM (active); in assay [8] it was 0.084 µM (active).
For the compound `CN1C(=O)c2ccccc2N(C)C1c1ccc(F)cc1` (stereo not given), the EC50 on Kallikrein-7 was > 69.5 µM (inactive).
Regarding `COc1ccc(CN(C)C[C@H]2OCCCC[C@H](C)Oc3ccc(NC(=O)Nc4ccc(C(F)(F)F)cc4)cc3C(=O)N([C@@H](C)CO)C[C@H]2C)cc1`, the AC50 in assay [9] is 14.4 µM (active); in assay [10], 40.5 µM (active); in assay [11], 22 µM (active); on Paired box protein Pax-8, 5.98 µM (active); in assay [12], 22.4 µM (active); in [13] it was 34.4 µM (active). The half-maximal activity concentration (AC50) is 33.7 µM (active) in assay [14]; 25.1 µM (active) in [15]; 31.6 µM (active) in assay [16]; > 70 µM (inactive) in assay [17]; > 70 µM (inactive) in [18].
With `CCOC(=O)c1c(-c2ccccc2)oc2cc(Br)c(O)cc12`, the figures for the IC50 in the assay “cells [19]” and at Major prion protein were 60 µM (inactive) and 1.44 µM (active), respectively.
For `CC(C)(C)c1ccc(S(=O)(=O)N2CCN(C(=O)/C=C/c3ccc(Cl)c(Cl)c3)CC2)cc1`, the IC50 in [20] is 0.0468 µM (active).
Turning to `Cc1nnc(S)c2nn(-c3ccccc3F)c(C)c12`, the IC50 in “cells [19]” is > 138 µM (inactive); at Major prion protein, 8.71 µM (active).
Take `CCS(=O)(=O)N1CCCCN2[C@H](C1)[C@@H](c1ccc(-c3ccc(C#N)cc3)cc1)[C@@H]2CO`: the AC50 (in assay [21]; in the assay with HEK293) was 18.6 µM (active) throughout.
For the compound `Cc1ccc2nc(-c3ccc(N)cc3)sc2c1`, the EC50 (in the assay on Streptococcus; on Streptokinase A; in [22]) was > 150 µM (not active) throughout. Further, the IC50 at Protein skinhead-1 is > 100 µM (inactive); in “cells [23]”, 29.7 µM (active). For the same compound, the concentration at half-maximal activity (AC50) in assay [1] is 1.88 µM (active); in [2], 51.3 µM (active); in [4], 1.55 µM (active); in [5], 50.6 µM (active). Further, the CC50 in [24] was > 50 µM (active).
Take `CCCCCCCCN1C(=O)[C@H](CC(=O)NCCCN2CCCC2=O)C[C@@]2(C(=O)OC)CC(C)(C)CC=C12`: the AC50 in assay [6] was > 30 µM (inactive).
Regarding `C[C@H]1CCCCO[C@H](CN(C)Cc2ccccc2)[C@@H](C)CN([C@@H](C)CO)C(=O)c2cc(NC(=O)Nc3ccc(C(F)(F)F)cc3)ccc2O1`, the half-maximal activity concentration (AC50) is 21.4 µM (active) in [11]; 11.3 µM (active) in assay [25]; 22.8 µM (active) in assay [12]; 6.32 µM (active) in assay [26]; 8.18 µM (active) in assay [27]; 23.4 µM (active) in assay [15].
In the case of `C[C@H](CO)N1C[C@H](C)[C@H](CN(C)Cc2ccc(C(F)(F)F)cc2)OCCCC[C@H](C)Oc2ccc(NC(=O)Nc3ccccc3)cc2C1=O`, the AC50 in [11] was 30.7 µM (active); on Paired box protein Pax-8, 8.44 µM (active); in [12], 27.6 µM (active); in assay [28], 11.8 µM (active).
`O=C(Nc1ccc2c(c1)CCC2)Nc1ccccc1Cl`: in [29], the AC50 was 26 µM (active).
`O=C(/C=C/c1ccc(F)cc1)N1CCN(S(=O)(=O)Cc2ccccc2)CC1`: the IC50 in [20] is 0.0287 µM (active).

Source of the values: ChEMBL document CHEMBL1201862, “PubChem BioAssay data set” (2004).
